Legend:
Format in all cases: biochemical, Trichoderma atroviride
FgenL model RNA [1] = experiment: TapeStation Assay, FgenL model RNA; parameters: Conc. FgenL#1 / Conc. FgenL#2: unit not given here; settings: for % Control N = 1 / % Control N = 2 / % Control Average: FgenL RNA, 20 mM amino acids, 50 mM CAPS pH 11, 50° C. 15 min; for % Control N = 1 / % Control N = 2: vs Time 0; for % Control Average: vs Time 0, Avg N=2; for Conc. FgenL#1 / Conc. FgenL#2: intact FgenL RNA after 15 min at 50° C.; for Conc. FgenL#1: 20 mM amino acids in 50 mM CAPS pH 11, run #1; for Conc. FgenL#2: 20 mM amino acids in 50 mM CAPS pH 11, run #2
Summary of the method: (§1)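 Chi18 or FgenL model RNA at 50 ng/μL in 50 mM CAPS pH 11 was mixed with amino acids (stocks in CAPS, readjusted to >pH 11) and heated at 50° C for 0 or 15 minutes; time-0 samples stayed on ice. Intact RNA was measured by capillary electrophoresis with optical detection and compared with a no-degradation baseline.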

Chi18 model RNA = experiment: TapeStation Assay, Chi18 model RNA; parameters: Conc. chi18#1 / Conc. chi18#2: unit not given here; settings: for % Control N = 1 / % Control N = 2 / % Control Avg.: Chi18 RNA, 20 mM amino acids, 50 mM CAPS pH 11, 50° C. 15 min; for % Control N = 1 / % Control N = 2: vs Time 0; for % Control Avg.: vs Time 0, Avg N=2; for Conc. chi18#1 / Conc. chi18#2: intact Chi18 RNA after 15 min at 50° C.; for Conc. chi18#1: 20 mM amino acids in 50 mM CAPS pH 11, run #1; for Conc. chi18#2: 20 mM amino acids in 50 mM CAPS pH 11, run #2
Summary of the method: as §1

Chi18 mRNA construct = experiment: Size Exclusion Base Hydrolysis Degradation Assay, Chi18; settings: for T0 R1 peak area at 250 nm: Chi18 0.1 mg/mL, 25 mM amino acid, 50 mM CAPS, T=0, replicate 1; for T2 Avg, peak area as percentage of T=0 / T2 R1 peak area at 250 nm / T10 Avg, peak area as percentage of T=0 / T10 R1 peak area at 250 nm / T24 Avg, peak area as percentage of T=0 / T24 R1 peak area at 250 nm / T0 Avg, peak area as percentage of T=0: Chi18, 25 mM amino acid; for T2 Avg, peak area as percentage of T=0 / T2 R1 peak area at 250 nm / T10 Avg, peak area as percentage of T=0 / T10 R1 peak area at 250 nm / T24 Avg, peak area as percentage of T=0 / T24 R1 peak area at 250 nm: 50 mM CAPS pH 11, room temperature; for T2 Avg, peak area as percentage of T=0 / T2 R1 peak area at 250 nm: 2 hrs; for T2 R1 peak area at 250 nm / T10 R1 peak area at 250 nm / T24 R1 peak area at 250 nm: replicate 1; for T10 Avg, peak area as percentage of T=0 / T10 R1 peak area at 250 nm: 10 hrs; for T24 Avg, peak area as percentage of T=0 / T24 R1 peak area at 250 nm: 24 hrs; for T0 Avg, peak area as percentage of T=0: T=0 (reference)
Experimental: Basic assay procedure: RNA samples were diluted to 1.0 mg/mL in DNAase/RNAase free water. Amino acids were dissolved in water to a stock solution of 100 mM and a solution of 500 mM CAPS pH 11 was used. The two mRNA constructs tested were FgenL and Chi18. Each individual sample volume was 50 μL. To determine the amount of 1 M NaOH needed to adjust the final pH to 11.0 after the addition of all sample components, the sample volume was increased 100 fold (5 mL), the volume of 1 M NaOH recorded and this value was translated back down to the 50 μL sample volume.
The mRNA and amino acid were allowed to incubate for one hour prior to the addition of CAPS pH 11. All steps of the assay were conducted at room temperature.
Degradation reaction: After the CAPS addition, the samples were injected onto the Waters H-Class UPLC system to record the first timepoint, T=O. This resulting chromatogram was processed by integrating the area of absorbance at 250 nm for the mRNA construct. Immediately following this timepoint, the pH was adjusted to 11. Subsequent time points (2 hrs, 10 hrs, and 24 hrs) recorded the Absorbance Units (peak area) at 250 nm as a percentage of the peak area determined at T=O. Integration of the chromatogram for subsequent timepoints was conducted by analyzing the area of absorbance at 250 nm contained within the same time window in which the peak eluted in T=0 for the 100% intact mRNA.

FgenL model RNA [2] = settings: percent protection, pH 11.0, 44° C., 16 hours, n = 2

Compound	% Control N = 1 (FgenL model RNA [1])	% Control N = 2 (FgenL model RNA [1])	% Control Average (FgenL model RNA [1])	Conc. FgenL#1 (FgenL model RNA [1])	Conc. FgenL#2 (FgenL model RNA [1])	% Control N = 1 (Chi18 model RNA)	% Control N = 2 (Chi18 model RNA)	% Control Avg. (Chi18 model RNA)	Conc. chi18#1 (Chi18 model RNA)	Conc. chi18#2 (Chi18 model RNA)	T0 R1 peak area at 250 nm (Chi18 mRNA construct)	T2 Avg, peak area as percentage of T=0 (Chi18 mRNA construct)	T2 R1 peak area at 250 nm (Chi18 mRNA construct)	T10 Avg, peak area as percentage of T=0 (Chi18 mRNA construct)	T10 R1 peak area at 250 nm (Chi18 mRNA construct)	T24 Avg, peak area as percentage of T=0 (Chi18 mRNA construct)	T24 R1 peak area at 250 nm (Chi18 mRNA construct)	T0 Avg, peak area as percentage of T=0 (Chi18 mRNA construct)	EC50 (FgenL model RNA [2])
N[C@@H](Cc1ccccc1)C(=O)O [Phenylalanine]	13.8%	6.9%	10.4%	4.76	2.4	17.2%	25.3%	21.3%	9.19	13.4	30537	72.1%	22175	16.3%	3615	0.0%	0	100.0%	> 30 mM
O=C(O)[C@@H]1C[C@@H](O)CN1 [Hydroxyproline]	14.8%	10.7%	12.8%	5.12	3.73	17.3%	17.3%	17.3%	9.2	–	13659	76.2%	8540	34.2%	3280	0.0%	0	100.0%	> 30 mM
N[C@@H](Cc1c[nH]c2ccccc12)C(=O)O [Tryptophan]	3.5%	1.5%	2.5%	1.21	0.51	2.9%	2.9%	2.9%	1.57	–	8974	78.0%	7000	47.7%	3243	0.0%	0	100.0%	> 30 mM
C[C@@H](O)[C@H](N)C(=O)O [Threonine]	49.3%	34.6%	41.9%	17	12	51.4%	40.8%	46.1%	27.4	21.6	39202	74.6%	28759	26.0%	10963	0.0%	0	100.0%	> 30 mM
CC(C)C[C@H](N)C(=O)O [Leucine]	24.3%	16.9%	20.6%	8.37	5.85	30.8%	31.9%	31.4%	16.4	16.9	43979	60.6%	23370	26.2%	10474	0.0%	0	100.0%	> 30 mM
CSCC[C@H](N)C(=O)O [Methionine]	35.4%	32.6%	34.0%	12.2	11.3	49.7%	49.7%	49.7%	26.5	–	17259	63.5%	8392	40.1%	6837	0.0%	0	100.0%	> 30 mM
N[C@@H](Cc1c[nH]cn1)C(=O)O [Histidine]	4.2%	3.7%	4.0%	1.46	1.3	3.0%	3.2%	3.1%	1.58	1.68	27170	152.8%	14612	2.8%	1391	0.0%	0	100.0%	> 30 mM
NCCCC[C@H](N)C(=O)O [Lysine]	19.9%	17.6%	18.7%	6.85	6.12	22.0%	15.5%	18.7%	11.7	8.18	24122	0.0%	0	0.0%	0	0.0%	0	100.0%	> 30 mM
N=C(N)NCCC[C@H](N)C(=O)O [Arginine]	4.2%	3.3%	3.8%	1.46	1.15	5.2%	4.7%	4.9%	2.78	2.46	20698	76.7%	15655	0.0%	0	0.0%	0	100.0%	> 30 mM

Reference: patent US20240122865A1, “Methods of Protecting RNA” (Pfizer Inc., priority 2021, published 2024)
